Drawing on ChEMBL document CHEMBL2424604, “Design, synthesis and QSAR studies of dispiroindole derivatives as new antiproliferative agents” (Eur J Med Chem, 2013), this text covers IC50 for nine compounds.

SMILES strings stand for the structures.

Assay type in all cases: functional, cell-based
The test system of experiment [1] is PC-3. As to the kind of experiment: Cytotoxicity against human PC3 cells after 48 hrs by SRB assay. The settings on record: PC-3, 48 h.
Experiment [2] relates to HeLa. As to the kind of experiment: Cytotoxicity against human HeLa cells after 48 hrs by SRB assay. In general terms: In SRB staining, fixed cells bind dye roughly in proportion to their protein.
Experiment [3] concerns HepG2. As to the kind of experiment: Cytotoxicity against human HepG2 cells after 48 hrs by SRB assay. The conditions noted are these: HepG2, 48 h.

Regarding `CN1C[C@@H](c2cccs2)[C@@]2(CCC/C(=C\c3cccs3)C2=O)[C@@]12C(=O)N(CN1CCOCC1)c1ccccc12`, the IC50 in experiment [1] is 30.1 µM; in experiment [2] it was 27.4 µM; in experiment [3] it was 30 µM.
For `Cc1ccc(/C=C2\CCC[C@]3(C2=O)[C@H](c2ccc(C)o2)CN(C)[C@]32C(=O)N(CN3CCOCC3)c3ccccc32)o1` the same measures were 21.2 µM, 18 µM and 28.4 µM.
The like results for `Cc1ccc(/C=C2\CCC[C@]3(C2=O)[C@H](c2ccc(C)cc2)CN(C)[C@]32C(=O)N(CN3CCOCC3)c3ccccc32)cc1` were, in that order, 32.9 µM, 13.3 µM and 21.7 µM.
For `COc1ccc(/C=C2\CCC[C@]3(C2=O)[C@H](c2ccc(OC)cc2)CN(C)[C@]32C(=O)N(CN3CCOCC3)c3ccccc32)cc1`, the IC50 was 58.8 µM in experiment [1], 18.5 µM in experiment [2] and 18.7 µM in experiment [3].
For `COc1ccc(/C=C2\CCC[C@]3(C2=O)[C@H](c2ccc(OC)c(OC)c2)CN(C)[C@]32C(=O)N(CN3CCOCC3)c3ccccc32)cc1OC` the same measures were 32 µM, 10.9 µM and 6.99 µM.
For `CN1C[C@@H](c2ccccc2)[C@@]2(CCC/C(=C\c3ccccc3)C2=O)[C@@]12C(=O)N(CN1CCOCC1)c1ccccc12` the same measures were 26.7 µM, 14.8 µM and 13.3 µM.
The like results for `CN1C[C@@H](c2ccc(Cl)cc2Cl)[C@@]2(CCC/C(=C\c3ccc(Cl)cc3Cl)C2=O)[C@@]12C(=O)N(CN1CCOCC1)c1ccccc12` were, in that order, 21.9 µM, 22.3 µM and 24.9 µM.
On to `CN1C[C@@H](c2ccc(F)cc2)[C@@]2(CCC/C(=C\c3ccc(F)cc3)C2=O)[C@@]12C(=O)N(CN1CCOCC1)c1ccccc12`, for which the IC50 in experiment [1] worked out at 19.5 µM; in experiment [2] it was 6.96 µM; in experiment [3], 8.09 µM.
For the compound `COc1cccc2c1C(=O)c1c(O)c3c(c(O)c1C2=O)C[C@@](O)(C(=O)CO)C[C@@H]3O[C@H]1C[C@H](N)[C@H](O)[C@H](C)O1` [DOXORUBICIN], the results for the IC50 in experiment [1] and in experiment [2] were 8.83 µM and 7.71 µM, respectively.

What is called IC50 is the concentration that inhibits the measured activity by half. Lower therefore signals higher potency.
